Measured values as given in patent US9920039B2, “1,2,4-Oxadiazol compounds active against gram-positive pathogens” (UNIVERSITÀ DEGLI STUDI DI MILANO—BICOCCA, priority 2013, dated 2018).
In brackets after ≈: the same amount, converted by molar mass. Like-named read-outs stand apart in the source and are kept apart here.

Tests used:
[1] = system: Staphylococcus aureus ATCC 29213; test: MIC by broth microdilution (CLSI); type: cell-based; conditions: read-out: MIC
Description: (§1) Several well characterized for their antibiotic-susceptibility phenotype Staphylococcus aureus isolates were used for the determination of the in vitro antibacterial activity of the studied compounds. In particular, S. aureus ATCC 29213 reference standard strain and S. aureus M923 (collection strain) were used as MSSA strains. Among MRSA, S. aureus MU50 (ATCC 700699) reference standard strain and two collection strains (433 and F511) were used for susceptibility assays.
(§2) The in vitro antibacterial activity of the new agents was studied by determining their minimum inhibitory concentrations (MICs) by means of the broth microdilution method according to the Clinical and Laboratory Standards Institute (CLSI) guidelines.[16] Briefly, serial 2-fold dilutions of each compound were made using the Cation adjusted Mueller-Hinton broth (CAMHB) in microtitre plates with 96 wells. Dimethyl sulfoxide (DMSO) was used as solvent for all the synthesized compounds. An equal volume of the bacterial inoculum (1×10^6 CFU/mL) was added to each well on the microtitre plate containing 0.05 mL of the serial antibiotic dilutions. The microtitre plate was then incubated at 37° C. for 18-24 h after which each well was analysed for the presence of bacterial growth. The MIC was defined as the lowest concentration of antimicrobial agent able to cause inhibition of bacterial growth as shown by the lack of turbidity of the culture medium. […] Final DMSO concentrations were also taken into account in all the biological assays.
(§3) The antimicrobial activities, summarized in Table 2, were determined by the “gold standard” method of broth microdilution, as recommended by the Clinical Laboratory Standards Institute (CLSI) (See the Experimental Section). […] In detail, the bacterial strains were tested: Staphylococcus aureus ATCC 29213, a clinical strain of methicillin-susceptible S. aureus (M923), S. aureus MU50 (methicillin-resistant—MRSA), and two methicillin-resistant clinical strains, 433 and F511.
(§4) The antimicrobial activities, summarized in Table 3, were determined by the “gold standard” method of broth microdilution, as recommended by the Clinical Laboratory Standards Institute (CLSI) (See the Experimental Section). The minimum inhibitory concentration (MIC) values were expressed in μg/mL. […] In detail, the tested bacterial strains were: Staphylococcus aureus ATCC 29213, a clinical strain of methicillin-susceptible S. aureus (M923), S. aureus MU50 (methicillin-resistant—MRSA) strain, and two methicillin-resistant clinical strains, 433 and F511.

[2] = system: S. aureus MU50 (ATCC 700699), methicillin-resistant (MRSA); test: MIC by broth microdilution (CLSI); type: cell-based, Staphylococcus aureus; conditions: Staphylococcus aureus
Description: as §1, §2, §3, §4

[3] = system: methicillin-susceptible S. aureus (M923); test: MIC by broth microdilution (CLSI); type: cell-based, Staphylococcus aureus; conditions: Staphylococcus aureus, MSSA M923, read-out: MIC
Description: as §1, §2, §3, §4

[4] = system: MRSA clinical strain F511; test: MIC by broth microdilution (CLSI); type: cell-based, Staphylococcus aureus; conditions: Staphylococcus aureus
Description: as §1, §2, §3, §4

MRSA clinical strain 433 = test: MIC by broth microdilution (CLSI); type: cell-based, Staphylococcus aureus; conditions: Staphylococcus aureus, MRSA 433, read-out: MIC
Description: as §1, §2, §3, §4

[5] = system: PK15 (porcine kidney epithelial) cells; test: Cell viability, MTT assay; type: cell-based; conditions: 5-400 μg/mL, FIG. 2
Experimental: (§5) [17-19] HepG2 and HaCat cells were grown in Dulbecco's modified eagles medium (DMEM) whereas PK15 in DMEM/M199 (1:1). All media were supplemented with 10% heat inactivated foetal bovine serum (FBS), 2 mM L-glutamine, 100 units/mL penicillin and 100 μg/mL streptomycin. Cells were maintained at 37° C. in a 5% CO2 atmosphere. All reagents for cell culture were from Euroclone (Pero, Italy).
(§6) Cell viability was measured by the MTT assay.[20] Briefly, MTT [3-(4,5-Dimethylthiazol-2-yl)-2,5-diphenyltetrazolium bromide] stock solution (5 mg/mL) was added to each well to a final concentration of 1.2 mM, and cells were incubated for 1 hour and 30 minutes at 37° C. After removing MTT solution, the reaction was stopped by adding 90% ethanol. Resuspended cells were centrifuged 10 min at 800×g. The absorbance was measured with the multilabel Victor^3 spectrophotometer (Perkin Elmer, Turku, Finland) at wavelength of 570 nm. Data are means±S.E. of 3 separate experiments performed in triplicate.
(§7) Statistical significance was obtained with Student'st test in comparison with controls *=P≤0.05, **=P≤0.001. Data are means±S.E. of 3 separate experiments performed in triplicate.
(§8) Another control was DMSO used as solvent.

[6] = system: HaCaT (human keratinocytes) cells; test: Cell viability, MTT assay; type: cell-based; conditions: P<0.01, FIG. 3
Experimental: as §5, §6, §7, §8

[7] = system: HepG2 (human hepatocellular carcinoma) cells; test: Cell viability, MTT assay; type: cell-based; conditions: FIG. 4
Experimental: as §5, §6, §7, §8

[8] = system: 6 ATCC (4MSSA, 2 MRSA)plus45 MRSA all LZD sensitive; test: MIC on strain panel (Table 4); type: cell-based, Staphylococcus aureus; conditions: 6 ATCC plus 45 MRSA
Description: as §2

[9] = system: 12 MRSE all LZD sensitive; test: MIC on strain panel (Table 4); type: cell-based, Staphylococcus epidermidis; conditions: Staphylococcus epidermidis
Description: as §2

[10] = system: 11 Linezolid-resistant CoNS; test: MIC summary on strain panel (Table 5); type: cell-based, Staphylococcus epidermidis, Staphylococcus hominis; conditions: 11 Linezolid-resistant CoNS
Description: as §2

[11] = system: 45 Linezolid-susceptible MRSA; test: MIC summary on strain panel (Table 5); type: cell-based, Staphylococcus aureus
Description: In particular, eleven linezolid-resistant coagulase-negative staphylococci (CoNS) (ten S. epidermidis and one S. hominis) were investigated. The eleven linezolid-resistant strains were isolated in several hospital settings between 2010 and 2011 from positive blood cultures. For the […], recently isolated from patients with cystic fibrosis, showing different profiles of multi-resistance to different classes of antimicrobials, was used (Table 4 and 5).
as §2

[12] = system: Linezolid-resistant S. hominis Strain 11; test: MIC by broth microdilution (Table 5); type: cell-based, Staphylococcus hominis; conditions: S. hominis Strain 11, linezolid-resistant
Description: as §2

ATCC E. faecalis 29212 = test: MIC by broth microdilution (Table 5); type: cell-based, Enterococcus faecalis
Experimental: Dimethyl sulfoxide (DMSO) was used as solvent for all the synthesized compounds. An equal volume of the bacterial inoculum (1×10^6 CFU/mL) was added to each well on the microtitre plate containing 0.05 mL of the serial antibiotic dilutions. The microtitre plate was then incubated at 37° C. for 18-24 h after which each well was analysed for the presence of bacterial growth. The MIC was defined as the lowest concentration of antimicrobial agent able to cause inhibition of bacterial growth as shown by the lack of turbidity of the culture medium. […] Final DMSO concentrations were also taken into account in all the biological assays.

[13] = system: Linezolid-resistant S. epidermidis Strains 1-10; test: MIC by broth microdilution (Table 5); type: cell-based, Staphylococcus epidermidis
Description: as §2

[14] = racemic mixture, Table 2, read-out: MIC
[15] = racemic form, Table 3, read-out: MIC

Work on `CC(=S)NCC1CN(c2ccc(-c3nc(C)no3)c(F)c2)C(=O)O1` (racemic) [Compound A4b, 3-(3′-fluoro-4′-(3″-methyl-1,2,4-oxadiazol-5-yl)-phenyl)-5-(N-thioacetylaminomethyl)-oxazolidin-2-one] yielded an MIC ([1]; Staphylococcus aureus, ATCC29213, ATCC 29213, racemic mixture, Table 2) of 1.6 µg/mL (≈ 4.57 µM), an MIC [2, 14] of no more than 0.4 µg/mL and an MIC ([3]; racemic mixture, Table 2) of 1.6 µg/mL (≈ 4.57 µM). For the same molecule, the MIC [4, 14] was 1.6 µg/mL (≈ 4.57 µM), the MIC (MRSA clinical strain 433; racemic mixture, Table 2) was 0.8 µg/mL (≈ 2.28 µM) and the reduction of viability [5] was “less than 10%”. For the same molecule, the “concentration reaching statistically significant mortality compared to linezolid” value [6] was 400 µg/mL and the “concentration from which a reduction in viability was shown” value [7] was no less than 50 µg/mL.
`CNC(=S)NCC1CN(c2ccc(-c3nc(C)no3)c(F)c2)C(=O)O1` (racemic) [Compound B4b, 1-((3-(3-fluoro-4-(3-methyl-1,2,4-oxadiazol-5-yl)phenyl)-oxazolidin-2-one-5-yl)methyl)-3-methylthiourea] showed an MIC ([1]; Staphylococcus aureus, ATCC29213, ATCC 29213, racemic form, Table 3) of 6.25 µg/mL (≈ 17.1 µM), an MIC-range ([8]; tested range ≤0.06 - >128) of 0.5 to 16 µg/mL and an MIC50 ([8]; Staphylococcus aureus, read-out: MIC50) of 4 µg/mL. It also gave an MIC90 ([8]; Staphylococcus aureus, read-out: MIC90) of 16 µg/mL, an MIC50 ([9]; read-out: MIC50) of 64 µg/mL (≈ 175 µM) and an MIC90 ([9]; read-out: MIC90) of 128 µg/mL (≈ 350 µM). It also gave a melting point of 170.7 to 172.4 °C, an MIC [2, 15] of 1.6 µg/mL (≈ 4.38 µM) and an MIC ([3]; racemic form, Table 3) of 6.25 µg/mL (≈ 17.1 µM). The MIC [4, 15] was 6.25 µg/mL (≈ 17.1 µM) and the MIC (MRSA clinical strain 433; racemic form, Table 3) was 3.12 µg/mL (≈ 8.55 µM).
`CC(=S)NC[C@@H]1CN(c2ccc(-c3nc(C)no3)cc2)C(=O)O1` [Compound A4aR] gave an MIC50 [10] greater than 128 µg/mL, an MIC90 [10] greater than 128 µg/mL and an MIC-range [10] greater than 128 µg/mL. It also gave an MIC50 [11] greater than 128 µg/mL, an MIC ([1]; ATCC S. aureus 29213, resolved enantiomers, Table 5) of 128 µg/mL (≈ 385 µM) and an MIC [12] greater than 128 µg/mL. The MIC (ATCC E. faecalis 29212) was greater than 128 µg/mL, the MIC ([13]; S. epidermidis Strain 1, linezolid-resistant) was greater than 128 µg/mL and the MIC ([13]; S. epidermidis Strain 2, linezolid-resistant) was greater than 128 µg/mL. For the same molecule, the MIC ([13]; S. epidermidis Strain 3, linezolid-resistant) was greater than 128 µg/mL, the MIC ([13]; S. epidermidis Strain 4, linezolid-resistant) was greater than 128 µg/mL and the MIC ([13]; S. epidermidis Strain 5, linezolid-resistant) was greater than 128 µg/mL. The MIC ([13]; S. epidermidis Strain 6, linezolid-resistant) was greater than 128 µg/mL, the MIC ([13]; S. epidermidis Strain 7, linezolid-resistant) was greater than 128 µg/mL and the MIC ([13]; S. epidermidis Strain 8, linezolid-resistant) was greater than 128 µg/mL. The MIC ([13]; S. epidermidis Strain 9, linezolid-resistant) was greater than 128 µg/mL and the MIC ([13]; S. epidermidis Strain 10, linezolid-resistant) was greater than 128 µg/mL.
